Source: patent US20240116877A1, “KIT KINASE INHIBITORS AND METHODS OF USE THEREOF” (Deciphera Pharmaceuticals, LLC, priority 2021, published 2024)
pIC50: −log10 of the molar value. Read-outs that look alike come from different tables or passages of the source.

Assays:
c-KIT kinase (uKIT) = c-KIT kinase (uKIT) (Homo sapiens (Human), UniProt P10721); assay: Biochemical Assay for uKIT (coupled pyruvate kinase/lactate dehydrogenase assay); settings: Inhibition of biochemical activity of uKIT kinase; 1 mM ATP
Chain of c-KIT kinase (uKIT) (P10721 other isoform, or with tags, fused parts or gaps): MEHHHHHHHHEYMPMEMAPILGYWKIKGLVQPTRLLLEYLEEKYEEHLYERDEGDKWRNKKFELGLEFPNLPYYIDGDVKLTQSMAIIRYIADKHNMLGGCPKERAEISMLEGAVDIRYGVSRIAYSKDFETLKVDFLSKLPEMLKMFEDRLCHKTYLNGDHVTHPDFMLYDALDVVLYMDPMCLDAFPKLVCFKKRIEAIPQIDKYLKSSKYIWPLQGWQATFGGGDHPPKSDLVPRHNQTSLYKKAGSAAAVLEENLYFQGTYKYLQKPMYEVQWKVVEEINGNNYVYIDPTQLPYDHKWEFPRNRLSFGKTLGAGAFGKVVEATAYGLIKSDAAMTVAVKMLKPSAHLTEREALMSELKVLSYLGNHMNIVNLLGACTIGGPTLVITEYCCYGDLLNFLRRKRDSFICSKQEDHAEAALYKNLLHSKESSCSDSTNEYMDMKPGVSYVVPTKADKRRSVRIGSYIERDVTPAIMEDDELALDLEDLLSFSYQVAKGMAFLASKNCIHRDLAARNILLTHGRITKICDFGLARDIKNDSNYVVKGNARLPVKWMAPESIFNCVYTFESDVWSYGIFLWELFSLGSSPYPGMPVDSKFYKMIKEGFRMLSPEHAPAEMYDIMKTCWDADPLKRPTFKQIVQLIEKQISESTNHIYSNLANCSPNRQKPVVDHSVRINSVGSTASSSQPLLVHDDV
Procedure, shortened: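 IC50 from percent inhibition of reaction rate over 2-3 h, relative to no-compound and known-inhibitor controls. KIT enzyme (16 nM or 4.36 nM, two sequences) ran with 1 mM ATP and 0.7 mg/mL PE4Y in Tris pH 7.5, 30° C; ATP turnover coupled to NADH loss at 340 nm.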

Ba/F3 KIT mutant cells = assay: Ba/F3 mutant KIT Cell Proliferation Assays (resazurin); type: cell-based; settings: Mus musculus, BaF3
Procedure, shortened: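 IC50 values come from resazurin fluorescence (ex 540, em 600) after 5 h dye exposure, added as a 440 μM solution. Cells were IL-3-independent Ba/F3 expressing mutant KIT from a lentiviral vector, puromycin-selected.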

GIST 430 cells = assay: GIST 430 Cell Proliferation Assay (resazurin); type: cell-based; settings: Homo sapiens; GIST430 cell proliferation
Procedure, shortened: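 Five thousand cells per well were exposed to serially diluted compound in complete growth medium for 115 h at 37 degrees Celsius, 5% CO2. Resazurin was then added for a further 5 h, fluorescence read at 540 nm excitation/600 nm emission, and IC50 values calculated.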

[1] = Ba/F3 KIT AYdup-V654A mutant cell proliferation, read-out: AYdup-V654A IC50
[2] = Ba/F3 KIT exon11del-V654A mutant cell proliferation, read-out: exon11del-V654A IC50
[3] = Ba/F3 KIT exon11del-Y823D mutant cell proliferation, read-out: exon11del-Y823D IC50
[4] = Ba/F3 KIT AYdup mutant cell proliferation, read-out: AYdup IC50
[5] = Ba/F3 KIT AYdup-D816G mutant cell proliferation, read-out: AYdup-D816G IC50

| Structure (SMILES) | pIC50 (c-KIT kinase (uKIT)) | pIC50 (Ba/F3 KIT mutant cells; [1]) | pIC50 (Ba/F3 KIT mutant cells; [2]) | pIC50 (Ba/F3 KIT mutant cells; [3]) | pIC50 (Ba/F3 KIT mutant cells; [4]) | pIC50 (Ba/F3 KIT mutant cells; [5]) | pIC50 (GIST 430 cells) |
| --- | --- | --- | --- | --- | --- | --- | --- |
| COCCOc1cc(F)c2c(Nc3ccc(NC(=O)COCC4CCOC4)cc3)ncnc2c1 (stereo not drawn) [Example 59] | 7.00 to 8.00 | 6.00 to 7.00 | 7.00 to 8.00 | < 6.00 | – | – | 7.00 to 8.00 |
| COCCOc1cc(F)c2c(Nc3ccc(NC(=O)NCCC4CCOCC4)cc3)ncnc2c1 [Example 61] | 7.00 to 8.00 | 7.00 to 8.00 | ≥ 8.00 | 7.00 to 8.00 | ≥ 8.00 | ≥ 8.00 | ≥ 8.00 |
| COCCOc1cc(F)c2c(Nc3ccc(NC(=O)NCCC(C)(C)F)c(F)c3)ncnc2c1 [Example 64] | 7.00 to 8.00 | 6.00 to 7.00 | 7.00 to 8.00 | 6.00 to 7.00 | – | – | 7.00 to 8.00 |
| COCCOc1cc(F)c2c(Nc3ccc(NC(=O)CN(C)C(=O)C(C)C)cc3)ncnc2c1 [Example 66] | 7.00 to 8.00 | 7.00 to 8.00 | 7.00 to 8.00 | < 6.00 | – | – | 7.00 to 8.00 |
| COCCOc1cc(F)c2c(Nc3ccc(NC(=O)C4(C(=O)NCC(C)C)CC4)cc3)ncnc2c1 [Example 71] | 7.00 to 8.00 | 6.00 to 7.00 | 7.00 to 8.00 | < 6.00 | – | – | 6.00 to 7.00 |
| COCCOc1cc(F)c2c(Nc3ccc(NC(=O)C4(C(=O)N(C)CC(C)C)CC4)cc3)ncnc2c1 [Example 72] | < 6.00 | < 6.00 | 6.00 to 7.00 | – | – | – | 6.00 to 7.00 |
| COCCOc1cc(F)c2c(Nc3ccc(NC(=O)C4(C(=O)NCCC(C)(C)F)CC4)cc3)ncnc2c1 [Example 75] | 7.00 to 8.00 | 6.00 to 7.00 | 7.00 to 8.00 | < 6.00 | – | – | 6.00 to 7.00 |
| COCCOc1cc(F)c2c(Nc3ccc(NC(=O)CC(=O)NCC4CC4)cc3)ncnc2c1 [Example 77] | 7.00 to 8.00 | 7.00 to 8.00 | ≥ 8.00 | 6.00 to 7.00 | – | – | 7.00 to 8.00 |
| COCCOc1cc(F)c2c(Nc3ccc(NC(=O)CC(=O)NCC4CCOCC4)cc3)ncnc2c1 [Example 78] | 6.00 to 7.00 | 6.00 to 7.00 | 7.00 to 8.00 | < 6.00 | – | – | 6.00 to 7.00 |
| COCCOc1cc(F)c2c(Nc3ccc(NC(=O)CC(=O)NCC4CCCC4)cc3)ncnc2c1 [Example 79] | 7.00 to 8.00 | 7.00 to 8.00 | 7.00 to 8.00 | 6.00 to 7.00 | – | – | 7.00 to 8.00 |
| COCCOc1cc(F)c2c(Nc3ccc(NC(=O)CC(=O)NCC(C)C)cc3)ncnc2c1 [Example 81] | 7.00 to 8.00 | 7.00 to 8.00 | 7.00 to 8.00 | < 6.00 | – | – | 7.00 to 8.00 |
| COCCOc1cc(F)c2c(Nc3ccc(NC(=O)CC(=O)NCCN(C)C)cc3)ncnc2c1 [Example 83] | < 6.00 | – | < 6.00 | – | – | – | < 6.00 |
| COCCOc1cc(F)c2c(Nc3ccc(NC(=O)CC(=O)NCC4(C)CC4)cc3)ncnc2c1 [Example 85] | ≥ 8.00 | 7.00 to 8.00 | ≥ 8.00 | 6.00 to 7.00 | – | – | ≥ 8.00 |
| COCCOc1cc(F)c2c(Nc3ccc(NC(=O)CC(=O)NCC(C)(C)COC)cc3)ncnc2c1 [Example 86] | 7.00 to 8.00 | 7.00 to 8.00 | 7.00 to 8.00 | < 6.00 | – | – | 7.00 to 8.00 |
| COCCOc1cc(F)c2c(Nc3ccc(NC(=O)CC(=O)NCC(C)(C)F)cc3)ncnc2c1 [Example 89] | 7.00 to 8.00 | 7.00 to 8.00 | 7.00 to 8.00 | 6.00 to 7.00 | – | – | 7.00 to 8.00 |
| COCCOc1cc(F)c2c(Nc3ccc(NC(=O)CC(=O)NCC4CCCCC4)cc3)ncnc2c1 [Example 91] | ≥ 8.00 | 7.00 to 8.00 | 7.00 to 8.00 | 6.00 to 7.00 | – | – | 7.00 to 8.00 |

Further lines, with some results ahead:

| pIC50 (c-KIT kinase (uKIT)) | pIC50 (Ba/F3 KIT mutant cells; [1]) | pIC50 (Ba/F3 KIT mutant cells; [2]) | pIC50 (Ba/F3 KIT mutant cells; [3]) | pIC50 (Ba/F3 KIT mutant cells; [4]) | pIC50 (Ba/F3 KIT mutant cells; [5]) | Structure (SMILES) | pIC50 (GIST 430 cells) |
| --- | --- | --- | --- | --- | --- | --- | --- |
| 7.00 to 8.00 | 7.00 to 8.00 | 7.00 to 8.00 | 6.00 to 7.00 | – | – | COCCOc1cc(F)c2c(Nc3ccc(NC(=O)C(F)(F)C(=O)NCC(C)(C)C)cc3)ncnc2c1 [Example 60] | 7.00 to 8.00 |
| < 6.00 | 6.00 to 7.00 | 6.00 to 7.00 | – | – | – | COCCOc1cc(F)c2c(Nc3ccc(NC(=O)CCC4CCN(C)CC4)cc3)ncnc2c1 [Example 62] | < 6.00 |
| 7.00 to 8.00 | 6.00 to 7.00 | 7.00 to 8.00 | < 6.00 | – | – | COCCOc1cc(F)c2c(Nc3ccc(NC(=O)CCC4CCOCC4)cc3)ncnc2c1 [Example 63] | 7.00 to 8.00 |
| ≥ 8.00 | 7.00 to 8.00 | ≥ 8.00 | 6.00 to 7.00 | – | – | COCCOc1cc(F)c2c(Nc3ccc(NC(=O)NCCC(C)(C)F)cc3F)ncnc2c1 [Example 65] | 7.00 to 8.00 |
| 7.00 to 8.00 | 6.00 to 7.00 | 7.00 to 8.00 | 7.00 to 8.00 | – | – | COCCOc1cc(F)c2c(Nc3ccc(NC(=O)CCC(=O)N(C)C(C)C)cc3)ncnc2c1 [Example 67] | 6.00 to 7.00 |
| ≥ 8.00 | 7.00 to 8.00 | ≥ 8.00 | 6.00 to 7.00 | – | – | CN(C)CCOc1cc(F)c2c(Nc3ccc(NC(=O)NCCC(C)(C)F)cc3)ncnc2c1 [Example 68] | ≥ 8.00 |
| ≥ 8.00 | 7.00 to 8.00 | 7.00 to 8.00 | 7.00 to 8.00 | 7.00 to 8.00 | ≥ 8.00 | COCCOc1cc(F)c2c(Nc3ccc(NC(=O)CC4CCC(C)(C)CC4)cc3)ncnc2c1 [Example 69] | ≥ 8.00 |
| < 6.00 | 6.00 to 7.00 | 6.00 to 7.00 | 6.00 to 7.00 | – | – | COCCOc1cc(F)c2c(Nc3ccc(NC(=O)NCCC(C)(C)C#N)cc3F)ncnc2c1 [Example 70] | < 6.00 |
| 7.00 to 8.00 | 7.00 to 8.00 | 7.00 to 8.00 | 6.00 to 7.00 | – | – | COCCOc1cc(F)c2c(Nc3ccc(NC(=O)CC(=O)N(C)C(C)C)cc3)ncnc2c1 [Example 74] | 7.00 to 8.00 |
| 7.00 to 8.00 | 7.00 to 8.00 | ≥ 8.00 | 6.00 to 7.00 | – | – | COCCOc1cc(F)c2c(Nc3ccc(NC(=O)CNC(=O)CC(C)C)cc3)ncnc2c1 [Example 76] | ≥ 8.00 |
| ≥ 8.00 | 7.00 to 8.00 | ≥ 8.00 | 6.00 to 7.00 | – | – | COCCOc1cc(F)c2c(Nc3ccc(NC(=O)CC(=O)NCCC(C)(C)C)cc3)ncnc2c1 [Example 82] | 7.00 to 8.00 |
| < 6.00 | – | 6.00 to 7.00 | – | – | – | COCCOc1cc(F)c2c(Nc3ccc(NC(=O)CC(=O)NCCN4CCOCC4)cc3)ncnc2c1 [Example 84] | < 6.00 |
| 7.00 to 8.00 | 7.00 to 8.00 | ≥ 8.00 | 7.00 to 8.00 | ≥ 8.00 | ≥ 8.00 | COCCOc1cc(F)c2c(Nc3ccc(NC(=O)CC(=O)NCC(C)(C)C(F)(F)F)cc3)ncnc2c1 [Example 88] | ≥ 8.00 |
| ≥ 8.00 | < 6.00 | ≥ 8.00 | 6.00 to 7.00 | – | – | COCCOc1cc(F)c2c(Nc3ccc(NC(=O)CC(=O)NCC4CCC4)cc3)ncnc2c1 [Example 90] | 7.00 to 8.00 |
